Holding throughout (test): Post-emergence glasshouse herbicidal efficacy, percentage damage to plant
Format in all cases: in vivo
Holding throughout (conditions): after 14 days

The subject of test [1] is Ipomoea hederacea (IPOHE). The text has this:
(§1) When active ingredients are combined, the activity to be expected (E) for any given active ingredient combination obeys the so-called Colby Formula and can be calculated as follows (Colby, S. R., Calculating synergistic and antagonistic responses of herbicide combination, Weeds, Vol. 15, pages 20-22; 1967): • ppm=milligrams of active ingredient (a.i.) per liter • X=% action by first active ingredient using p ppm of the active ingredient • Y=% action by second active ingredient sing q ppm of the active ingredient.
(§2) According to Colby, the expected action of active ingredients A+B using p+q ppm of active ingredient is represented by the following formula: […]
(§3) If the action actually observed (O) is greater than the expected action E then the action of the combination is super-additive, i.e. there is a synergistic effect. In mathematical terms, synergism corresponds to a positive value for the difference of (O-E). In the case of purely complementary addition of activities (expected activity), said difference (O-E) is zero. A negative value of said difference (O-E) signals a loss of activity compared to the expected activity.
(§4) Biological Efficacy Tests Seeds of a variety of test species are sown in standard soil in pots (Ipomoea hederacea (IPHOE), Alopecurus myosuroides (ALOMY), Lolium perenne (LOLPE), Echinochloa crus-galli (ECHCG), and Setaria faberi (SETFA)), and cultivated under controlled conditions in a glasshouse (at 24/16° C., day/night; 14 hours light; 65% humidity), the plants are sprayed with an aqueous spray solution derived from the dissolution of the test compound or composition in acetone and IF50 (11.12% Emulsogen EL360 TM+44.44% N-methylpyrrolidone+44.44% Dowanol DPM glycol ether) which was then diluted to the required concentration using 0.2% Genapol X080 (CAS No. 9043-30-5) in water as the diluent. Test compounds or compositions are applied at the rates stated. The test plants are then grown in a glasshouse under controlled conditions in a glasshouse (at 24/16° C., day/night; 14 hours light; 65% humidity) and watered twice daily. After 14 days, the test is evaluated for the percentage damage caused to the plant (100=total damage to plant; 0=no damage to plant), and the result are shown below in tables B1 to B5.

Test [2] relates to Alopecurus myosuroides (ALOMY).
Source text: as §1, §2, §3, §4

The subject of a further test is Lolium perenne (LOLPE).
Source text: as §1, §2, §3, §4

In another test the test system is Setaria faberi (SETFA).
Source text: as §1, §2, §3, §4

Test [3] has as its system Echinochloa crus-galli (ECHCG).
Source text: as §1, §2, §3, §4

On to `CCOC(=O)C1(C)CC(c2cc(-n3c(=O)cc(C(F)(F)F)n(C)c3=O)c(F)cc2Cl)=NO1` (centres unmarked) [(Ia)], for which, in test [1] (Ipomoea hederacea, 336 h, (Ia) 0.9375 g/Ha alone, read-out: Observed Activity (%)), the inhibition at 0.9375 g/ha came to 84.8%. For the same compound, the inhibition at 1.875 g/ha in test [2] (Alopecurus myosuroides, 336 h, (Ia) 1.875 g/Ha alone, read-out: Observed Activity (%)) came to 10%; in the test on Lolium perenne (LOLPE) (Lolium perenne, 336 h, (Ia) 1.875 g/Ha alone, read-out: Observed Activity (%)) it was 0%; with Setaria faberi (SETFA) (Setaria faberi, 336 h, (Ia) 1.875 g/Ha alone, read-out: Observed Activity (%)), 55%; in test [3] (Echinochloa crus-galli, 336 h, (Ia) 1.875 g/Ha alone, read-out: Observed Activity (%)), 15%. The inhibition at 3.75 g/ha turned out to be 27.5% in test [2] (Alopecurus myosuroides, 336 h, (Ia) 3.75 g/Ha alone, read-out: Observed Activity (%)); 12.5% with Lolium perenne (LOLPE) (Lolium perenne, 336 h, (Ia) 3.75 g/Ha alone, read-out: Observed Activity (%)); 67.5% in the test on Setaria faberi (SETFA) (Setaria faberi, 336 h, (Ia) 3.75 g/Ha alone, read-out: Observed Activity (%)); 37.5% in test [3] (Echinochloa crus-galli, 336 h, (Ia) 3.75 g/Ha alone, read-out: Observed Activity (%)). For the same compound, the inhibition at 7.5 g/ha in test [2] (Alopecurus myosuroides, 336 h, (Ia) 7.5 g/Ha alone, read-out: Observed Activity (%)) is 42.5%; in the test on Lolium perenne (LOLPE) (Lolium perenne, 336 h, (Ia) 7.5 g/Ha alone, read-out: Observed Activity (%)), 42.5%; in test [3] (Echinochloa crus-galli, 336 h, (Ia) 7.5 g/Ha alone, read-out: Observed Activity (%)), 99%. Further, the inhibition at 15 g/ha in test [2] (Alopecurus myosuroides, 336 h, (Ia) 15 g/Ha alone, read-out: Observed Activity (%)) is 60%; with Lolium perenne (LOLPE) (Lolium perenne, 336 h, (Ia) 15 g/Ha alone, read-out: Observed Activity (%)), 50%.

Regarding `CCc1cccc(C)c1N(C(=O)CCl)[C@@H](C)COC` [S-metolachlor], the “Observed Activity (%)” value came to 5.0% in test [1] (S-metolachlor 62.5 g/Ha alone); 7.5% in test [1] (S-metolachlor 125 g/Ha alone); 0.0% in test [2] (S-metolachlor 18.75 g/Ha alone); 10.0% in test [2] (S-metolachlor 37.5 g/Ha alone); 0.0% in test [2] (S-metolachlor 75 g/Ha alone); 27.5% in test [2] (S-metolachlor 150 g/Ha alone). The “Observed Activity (%)” value in test [2] (S-metolachlor 300 g/Ha alone) stood at 45.0%; in the test with Lolium perenne (LOLPE) (S-metolachlor 18.75 g/Ha alone), 45.0%; in the test with Lolium perenne (LOLPE) (S-metolachlor 37.5 g/Ha alone), 60.0%; in the test on Lolium perenne (LOLPE) (S-metolachlor 75 g/Ha alone), 70.0%; with Lolium perenne (LOLPE) (S-metolachlor 150 g/Ha alone) it was 67.5%; in the test on Lolium perenne (LOLPE) (S-metolachlor 300 g/Ha alone), 80.0%. The “Observed Activity (%)” value stood at 72.5% in the test on Setaria faberi (SETFA) (S-metolachlor 37.5 g/Ha alone); 82.5% with Setaria faberi (SETFA) (S-metolachlor 75 g/Ha alone); 85.0% with Setaria faberi (SETFA) (S-metolachlor 150 g/Ha alone); 75.0% in test [3] (S-metolachlor 18.75 g/Ha alone); 85.0% in test [3] (S-metolachlor 37.5 g/Ha alone); 85.0% in test [3] (S-metolachlor 75 g/Ha alone).
